Test results reported in patent publication US11021455B2, “Brominated furanone derivative, method for preparing same, and pharmaceutical composition containing same as active ingredient” (SEOUL NATIONAL UNIVERSITY R&DB FOUNDATION, priority 2016, dated 2021).
Where two headings read alike, the source gives them in different places.

Columns and labels:
[1] = test system: F. nucleatum biofilm; experiment: Inhibition of biofilm formation, crystal violet staining (OD595); format: cell-based; conditions: 20 nM; compared with furanone treated control group; FIG. 20
Experimental: (§1) Particularly, a sterilized cover glass slip (round shape with a radius of 12 mm) was placed on each well of a cell culture plate (24 well plate) by using a pincette. F. nucleatum A1-2 was added to cell culture medium (BHI medium+supplements) at the volume of 10% by the total volume. The compounds of examples of the present invention were diluted to make the final concentration of each compound of 2 μM, 0.2 μM and 0.02 μM (BH1 medium: Brain Heart Infusion Medium, supplements: hemin (10 μg/ml) and vitamin K (0.2 μg/ml)). The prepared culture solution was added to each well of the plate where the glass slip was placed, and the desired number of bacteria was inoculated into each well (F. nucleatum: 2×10^7 cells/ml, P. gingivalis: 4×10^8 cells/ml, T. forsythia: 2×10^8 cells/ml). For the positive control not treated with the compounds of examples of the present invention (F.n AI-2), F. nucleatum AI-2 was added to the cell culture medium (BHI+supplements) and then the same number of cells was inoculated. In the meantime, for the negative control treated neither the compound of the present invention nor F. nucleatum A1-2 (Fn), PBS was added to the cell culture medium (BHI+supplements) instead of F. nucleatum A1-2 at the same volume as the above. The prepared well plate was incubated at 37° C. under anaerobic condition (10% H2, 10% CO2 and 80% N2) for 48 hours for the culture of bacteria. The biofilm formed on the glass slip by the bacteria cultured in each group was quantitatively and comparatively analyzed using the following techniques. […] 200 μl of the decolorizing solution containing crystal violet was added to each well of the microplate, and OD595 was measured using a microplate reader (Microplate reader, Model 550, Bio-Rad, USA). The measured values were compared among the groups (As the biofilm formation increased by the molecules secreted by F. nucleatum was suppressed by the compound of the present invention, the measured value was decreased.).

[2] = test system: IL-6 and IL-8 genes in THP-1 cells; experiment: Effect on host cell immunity: IL-6 and IL-8 gene expression by real-time RT-PCR in THP-1 cells; format: cell-based, human
Experimental: (§2) To evaluate the effect of the compounds of the present invention on host cell (normal cell) immunity, the host cells were treated with the compounds of the present invention, followed by investigation of the activity of proinflammatory cytokines in host cells.
(§3) Particularly, in order to investigate whether or not the compounds of the present invention were able to induce inflammatory responses in host cells, the expression levels of proinflammatory cytokines including interleukin (IL)-6 and IL-8 were measured by real-time RT-PCR. THP-1 cells (1×10^6 cells/well) and HGF cells (2×10^5 cells/well) were distributed in a 6 well plate, followed by culture in the presence or absence of the compounds of examples (5, 6 and 13) or lipopolysaccharide (LPS, 1 mg) known as an endotoxin of Gram negative bacteria that causes a strong immune response in host cells at 37° C. for 24 hours. Upon completion of the 24 hour culture, RNA was extracted from the THP-1 and HGF cells by using Easy-Blue total RNA extraction kit (iNtRON Biotechnology, Seongnam, Korea) according to the manufacturer's protocol. A cDNA sample ([…]) synthesized from the extracted RNA ([…]) using MMLV reverse transcription kit (Promega, Madison, Wis.) was added to each primer pair (10 pM) and Power SYBR Green Master Mix (Applied Biosystems, Warrington, UK) at the reaction volume of […]. The mixture was applied to ABI PRISM 7500 Fast Real-Time PCR system (Applied Biosystems, Foster City, Calif., USA) by using thermocycling (thermocycling: denaturation at 95° C. for 15 seconds, annealing and extension at 60° C. for 1 minute). Glyceraldehyde 3-phosphate dehydrogenase (GAPDH) gene was used as a reference gene to normalize the gene expression levels of inflammatory cytokines including interleukin 6 (IL-6) and interleukin 8 (IL-8).

[3] = test system: IL-6 and IL-8 genes in HGF cells; experiment: Effect on host cell immunity: IL-6 and IL-8 gene expression by real-time RT-PCR in HGF cells; format: cell-based, human
Experimental: as §2, §3

[4] = test system: biofilm formation of bacteria; experiment: Evaluation of inhibition of biofilm formation (overall statements); format: cell-based; conditions: FIG. 20 to FIG. 21; 2000 nM, 200 nM and 20 nM
Experimental: (§4) Particularly, a sterilized cover glass slip (round shape with a radius of 12 mm) was placed on each well of a cell culture plate (24 well plate) by using a pincette. F. nucleatum A1-2 was added to cell culture medium (BHI medium+supplements) at the volume of 10% by the total volume.
(§5) The compounds of examples of the present invention were diluted to make the final concentration of each compound of 2 μM, 0.2 μM and 0.02 μM (BH1 medium: Brain Heart Infusion Medium, supplements: hemin (10 μg/ml) and vitamin K (0.2 μg/ml)).
(§6) The prepared culture solution was added to each well of the plate where the glass slip was placed, and the desired number of bacteria was inoculated into each well (F. nucleatum: 2×10^7 cells/ml, P. gingivalis: 4×10^8 cells/ml, T. forsythia: 2×10^8 cells/ml).
(§7) The prepared well plate was incubated at 37° C. under anaerobic condition (10% H2, 10% CO2 and 80% N2) for 48 hours for the culture of bacteria. The biofilm formed on the glass slip by the bacteria cultured in each group was quantitatively and comparatively analyzed using the following techniques.
The glass slip whereon biofilm had been formed was stained with 1% crystal violet solution for 10 minutes, followed by washing with PBS (phosphate buffered saline) three times, and decolorized with acetone-alcohol.
200 μl of the decolorizing solution containing crystal violet was added to each well of the microplate, and OD595 was measured using a microplate reader (Microplate reader, Model 550, Bio-Rad, USA). The measured values were compared among the groups (As the biofilm formation increased by the molecules secreted by F. nucleatum was suppressed by the compound of the present invention, the measured value was decreased.).

[5] = test system: P. gingivalis biofilm; experiment: Inhibition of biofilm formation, crystal violet staining (OD595); format: cell-based; conditions: 2000 nM, 200 nM and 20 nM; FIG. 21
Experimental: as §1

[6] = test system: biofilms of F. nucleatum, givalis and T. forsythia; experiment: Biofilm morphology, confocal scanning laser microscope technique; format: cell-based; conditions: live/dead staining; FIG. 22
Experimental: as §4, §5, §6, §7
The glass slip whereon biofilm had been formed was stained by using a live/dead-BacLight bacterial viability kit (Invitrogen, Grand Island, N.Y., USA), and the morphology of the biofilm was observed under a confocal scanning laser microscope and compared.

Molecule | induction of IL-6 and IL-8 gene expression (inflammatory response) in THP-1 cells [2] | induction of IL-6 and IL-8 gene expression (inflammatory response) in HGF cells ([3]; human, 24 h) | biofilm inhibitory activity (general statement) [4] | other results
O=C1OC(=C(Br)Br)C2CCCC12 (stereo not shown) [Example 5, 3-(dibromomethylene)-hexahydrocyclopenta[c]furan-1(3H)-one] | not to induce inflammatory responses | did not induce the expressions of IL-6 and IL-8 genes | particularly excellent in inhibiting biofilm formation | F. nucleatum biofilm inhibitory activity (OD595) [1]: superior F. nucleatum biofilm inhibitory activity at the concentration of 20 nM to the furanone treated control group
lipopolysaccharide [LPS, reference compound] | – | – | – | induction of IL-6 and IL-8 gene expression (inflammatory response) in THP-1 cells ([2]; 24 hours, normalised to GAPDH, FIG. 26): induced the expressions of IL-6 and IL-8 genes; induction of IL-6 and IL-8 gene expression (inflammatory response) in HGF cells ([3]; 24 hours, normalised to GAPDH, FIG. 27): induced the expressions of both cytokines
O=C1OC(=C(Br)Br)C2=C1CCCC2 [Example 3, 3-(dibromomethylene)-4,5,6,7-tetrahydroisobenzofuran-1(3H)-one] | – | – | – | P. gingivalis biofilm inhibitory activity (OD595) [5]: excellent P. gingivalis biofilm inhibitory activity
O=C1OC(=C(Br)Br)C2=C1CCC2 [Example 4, 3-(dibromomethylene)-5,6-dihydro-3H-cyclopenta[c]furan-1(4H)-one] | – | – | – | F. nucleatum biofilm inhibitory activity (OD595) [1]: superior F. nucleatum biofilm inhibitory activity at the concentration of 20 nM to the furanone treated control group; inhibition of biofilm formation seen in confocal photographs [6]: inhibited the biofilm formation of bacteria
O=C1OC(=C(Br)Br)c2ccccc21 [Example 2, 3-(dibromomethylene)isobenzofuran-1(3H)-one] | – | – | – | inhibition of biofilm formation seen in confocal photographs [6]: inhibited the biofilm formation of bacteria
Cc1cccc2c1C(=O)OC2=C(Br)Br [Example 13, 3-(dibromomethylene)-7-methylisobenzofuran-1(3H)-one] | not to induce inflammatory responses | did not induce the expressions of IL-6 and IL-8 genes | particularly excellent in inhibiting biofilm formation | –
Cc1ccc2c(c1)C(=C(Br)Br)OC2=O [Example 6, 3-(dibromomethylene)-5-methylisobenzofuran-1(3H)-one] | not to induce inflammatory responses | did not induce the expressions of IL-6 and IL-8 genes | particularly excellent in inhibiting biofilm formation | –
